We go through 17 molecules from US11826351B2, “Compounds useful as kinase inhibitors” (Loxo Oncology, Inc., priority 2015, dated 2023).

One assay addresses T1, Recombinant EGFR (Homo sapiens, UniProt P00533).
T1 construct: purchased Invitrogen
The experiment in a line: EGFR binding affinity (LanthaScreen TR-FRET). The settings on record: Kinase Tracer 199, 5 h incubation. As for the experimental part:
EGFR binding affinity was determined using a time-resolved fluorescence resonance energy transfer (TR-FRET) methodology. […] Recombinant EGFR and all LanthaScreen™ components were purchased from Invitrogen. Measurements were performed in a reaction volume of 30 μL using half-area 96-well assay plates. […] Binding affinity was determined for each compound by measuring TR-FRET signal at various concentrations of compound and plotting the relative fluorescence units against the inhibitor concentration to estimate the IC50 from log[Inhibitor] vs response using the Variable Slope model in Graphpad prism from Graphpad software (San Diego, Calif.).

Assay [1] relates to OCI-Ly10 human DLBCL cells. In words: OCI-Ly10 anti-proliferative activity (Resazurin). It is filed as cell-based. The settings on record: Homo sapiens, OCI-Ly10, 72 h, read-out: Proliferation Assay OCI-Ly10-20% FBS. As for the experimental part: Compounds were assayed for effects on the growth of OCI-Ly10 human DLBCL cells that are dependent on NFκB signalling. […] Cells were then plated at 7.5×10^3 cells per well in 96-well plates in varying concentrations of compound and incubated for 72 h at 37° C. An additional plate of cells to be used as the Day 0 read was seeded without compound addition, Resazurin was added to each well, incubated for 5 h and the fluorescence measured at 590 nm. After 72 h of compound treatment, Resazurin was added to each well of the compound treated plates, incubated for 5 h and the fluorescence measured at 590 nm. The IC50 was then calculated by subtracting the average Day 0 value from each well value from the treated plates, each treatment was then calculated as a percentage of the DMSO control and the percentages plotted against the inhibitor concentration to estimate the IC50 from log[Inhibitor] vs response using the Variable Slope model in Graphpad prism from Graphpad software (San Diego, Calif.).
For orientation: Alamar Blue is a resazurin reagent that responds to reducing activity.

The target of assay [2] is T2, Recombinant BTK^WT kinase (Homo sapiens, UniProt Q06187).
T2 construct: purchased Invitrogen
The experiment in a line: BTK WT binding affinity (LanthaScreen TR-FRET). Conditions: Kinase Tracer 236, 5 h incubation. As for the experimental part:
BTK^WT binding affinity of each compound tested was determined using a time-resolved fluorescence resonance energy transfer (TR-FRET) methodology. 2.5 nM Recombinant BTK^WT kinase, varying concentrations of inhibitor, 2 nM LanthaScreen™ Eu anti-His Antibody and 15 nM Kinase Tracer 236 was incubated in 1× LanthaScreen™ Kinase Buffer A for 5 h. Recombinant BTK kinase and all LanthaScreen™ components were purchased from Invitrogen. Measurements were performed in a reaction volume of 30 μL using half-area 96-well assay plates. The TR-FRET signal was read on a plate reader with an excitation wavelength of 340 nm and detection wavelengths of 615 and 665 nm. Binding affinity was determined for each compound by measuring TR-FRET signal at various concentrations of compound and plotting the relative fluorescence units against the inhibitor concentration to estimate the IC50 from log[Inhibitor] vs response using the Variable Slope model in Graphpad prism from Graphpad software (San Diego, Calif.).

Assay [3] deals with T3, Recombinant BTK^C481S kinase (Homo sapiens, UniProt Q06187, C481S).
T3 construct: purchased SignalChem
The experiment in a line: BTK C481S binding affinity (LanthaScreen TR-FRET). The settings on record: Kinase Tracer 236, 5 h incubation. As for the experimental part:
BTK^C481S binding affinity of each compound tested was determined using a time-resolved fluorescence resonance energy transfer (TR-FRET) methodology. 5 nM Recombinant BTK^WT kinase, varying concentrations of inhibitor, 2 nM LanthaScreen™ Eu anti-His Antibody and 30 nM Kinase Tracer 236 was incubated in 1× LanthaScreen™ Kinase Buffer A for 5 h. Recombinant BTK^C481S kinase was purchased from SignalChem and all LanthaScreen™ components were purchased from Invitrogen. Measurements were performed in a reaction volume of 30 μL using half-area 96-well assay plates. The TR-FRET signal was read on a plate reader with an excitation wavelength of 340 nm and detection wavelengths of 615 and 665 nm. Binding affinity was determined for each compound by measuring TR-FRET signal at various concentrations of compound and plotting the relative fluorescence units against the inhibitor concentration to estimate the IC50 from log[Inhibitor] vs response using the Variable Slope model in Graphpad prism from Graphpad software (San Diego, Calif.).
On the technique in general: In TR-FRET formats the signal depends on donor and acceptor labels being close together.

Where [4] appears, read: OCI-Ly10 cells, 72 h compound treatment, Resazurin.

The structures appear in SMILES notation. Read-outs that look alike come from different tables or passages of the source. Some results are limits rather than exact numbers.

T3 sequence (Q06187 whole entry C481S): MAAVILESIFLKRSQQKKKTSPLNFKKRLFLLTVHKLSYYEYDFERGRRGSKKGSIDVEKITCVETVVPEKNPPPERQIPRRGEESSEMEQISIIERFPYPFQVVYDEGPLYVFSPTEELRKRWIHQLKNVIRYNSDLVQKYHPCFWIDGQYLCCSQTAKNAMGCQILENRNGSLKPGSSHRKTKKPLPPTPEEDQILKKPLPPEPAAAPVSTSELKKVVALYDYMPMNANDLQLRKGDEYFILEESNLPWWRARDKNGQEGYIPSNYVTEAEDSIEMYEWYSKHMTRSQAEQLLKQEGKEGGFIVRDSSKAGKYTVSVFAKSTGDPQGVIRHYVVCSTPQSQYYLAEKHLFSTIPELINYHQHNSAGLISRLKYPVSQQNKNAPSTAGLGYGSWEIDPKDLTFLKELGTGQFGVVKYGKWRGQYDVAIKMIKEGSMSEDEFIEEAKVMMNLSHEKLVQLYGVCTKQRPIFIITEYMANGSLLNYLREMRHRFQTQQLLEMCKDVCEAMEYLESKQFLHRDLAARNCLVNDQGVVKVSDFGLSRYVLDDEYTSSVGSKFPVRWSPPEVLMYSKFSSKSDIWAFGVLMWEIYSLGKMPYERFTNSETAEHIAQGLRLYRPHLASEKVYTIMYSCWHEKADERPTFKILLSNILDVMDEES
T1 sequence (P00533 25-1210): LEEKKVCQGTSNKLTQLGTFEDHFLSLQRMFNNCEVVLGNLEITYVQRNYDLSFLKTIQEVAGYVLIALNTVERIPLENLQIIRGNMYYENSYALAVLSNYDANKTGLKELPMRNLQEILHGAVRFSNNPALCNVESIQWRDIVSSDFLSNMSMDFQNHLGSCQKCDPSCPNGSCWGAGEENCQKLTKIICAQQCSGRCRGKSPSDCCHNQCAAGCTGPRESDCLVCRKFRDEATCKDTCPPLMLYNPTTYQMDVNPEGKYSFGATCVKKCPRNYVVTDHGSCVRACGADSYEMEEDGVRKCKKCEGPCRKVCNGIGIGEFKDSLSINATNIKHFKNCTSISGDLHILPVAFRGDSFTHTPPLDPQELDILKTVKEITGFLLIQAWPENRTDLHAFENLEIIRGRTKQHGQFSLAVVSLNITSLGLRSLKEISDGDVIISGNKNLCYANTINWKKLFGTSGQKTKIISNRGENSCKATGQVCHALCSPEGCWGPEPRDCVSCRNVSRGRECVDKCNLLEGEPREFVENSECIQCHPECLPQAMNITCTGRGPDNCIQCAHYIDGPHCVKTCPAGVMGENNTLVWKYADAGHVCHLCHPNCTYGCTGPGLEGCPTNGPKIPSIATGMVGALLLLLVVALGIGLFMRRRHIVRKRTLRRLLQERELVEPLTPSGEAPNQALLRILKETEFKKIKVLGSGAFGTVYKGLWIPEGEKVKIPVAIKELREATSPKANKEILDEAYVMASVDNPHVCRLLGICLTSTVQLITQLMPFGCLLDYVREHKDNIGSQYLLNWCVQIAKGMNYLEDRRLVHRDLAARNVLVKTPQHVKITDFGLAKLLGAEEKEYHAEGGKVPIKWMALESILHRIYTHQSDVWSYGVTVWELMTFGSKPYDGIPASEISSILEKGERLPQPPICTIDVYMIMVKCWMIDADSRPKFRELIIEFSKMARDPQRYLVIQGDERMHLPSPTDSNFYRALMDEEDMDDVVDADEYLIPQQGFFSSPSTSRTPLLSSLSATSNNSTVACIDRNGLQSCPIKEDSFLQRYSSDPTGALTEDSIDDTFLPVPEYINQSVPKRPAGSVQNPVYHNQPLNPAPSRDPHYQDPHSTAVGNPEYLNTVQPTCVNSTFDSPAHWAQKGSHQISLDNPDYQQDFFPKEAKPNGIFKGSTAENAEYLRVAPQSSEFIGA
T2 sequence (Q06187 whole entry): as the sequence (Q06187 whole entry C481S) above, with S481C counted along it

With `COc1ccccc1C(=O)NCc1ccc(-c2nn(C3CC(C)OC(C)C3)c(N)c2C(N)=O)cc1` (centres unmarked) [Example 104, 5-amino-1-(2,6-dimethyltetrahydropyran-4-yl)-3-[4-[[(2-methoxybenzoyl)amino]methyl]phenyl]pyrazole-4-carboxamide], the IC50 at Recombinant EGFR was 1000 to 10000 nM; in assay [1] (setting [4]) it was 100 to 1000 nM; in assay [2], 10 to 100 nM; in assay [3] it was below 10 nM.
`COc1ccccc1C(=O)NCc1ccc(-c2nn(C3CCC3)c(N)c2C(N)=O)cc1` [Example 35, 5-Amino-1-cyclobutyl-3-[4-[[(2-methoxybenzoyl)amino]methyl]phenyl]pyrazole-4-carboxamide]: the IC50 on Recombinant EGFR was 1000 to 10000 nM; in assay [1] (setting [4]), 10 to 100 nM; in assay [2], below 10 nM; in assay [3] it was below 10 nM.
For `COc1ccc(F)cc1C(=O)NCc1ccc(-c2nn(C(C)C(F)(F)F)c(N)c2C(N)=O)cc1` (centres unmarked) [Example 120, 5-amino-3-[4-[[(5-fluoro-2-methoxy-benzoyl)amino]methyl]phenyl]-1-(2,2,2-trifluoro-1-methyl-ethyl)pyrazole-4-carboxamide], the IC50 on Recombinant EGFR is 1000 to 10000 nM; in assay [1] (setting [4]) it was 10 to 100 nM; in assay [2], below 10 nM; in assay [3], below 10 nM.
As to `COc1ccc(F)cc1C(=O)NCc1cc(F)c(-c2nn(C(C)C(F)(F)F)c(N)c2C(N)=O)cc1F` (centres unmarked) [Example 168, 5-amino-3-[2,5-difluoro-4-[[(5-fluoro-2-methoxy-benzoyl)amino]methyl]phenyl]-1-(2,2,2-trifluoro-1-methyl-ethyl)pyrazole-4-carboxamide], the IC50 was 1000 to 10000 nM on Recombinant EGFR, 10 to 100 nM in assay [1], 10 to 100 nM in assay [2] and below 10 nM in assay [3].
Turning to `COc1ccccc1C(=O)NC(C)c1ccc(-c2nn(C3CCCC3)c(N)c2C(N)=O)cc1` (centres unmarked) [Example 79, 5-amino-1-cyclopentyl-3-[4-[1-[(2-methoxybenzoyl)amino]ethyl]phenyl]pyrazole-4-carboxamide], the IC50 on Recombinant EGFR is 1000 to 10000 nM; in assay [1] (setting [4]), 1000 to 10000 nM; in assay [2], 100 to 1000 nM; in assay [3], 100 to 1000 nM.
In the case of `COc1ccccc1C(=O)NCc1ccc(-c2nn(C3CCCC3)c(N)c2C(N)=O)cc1F` [Example 93, 5-amino-1-cyclopentyl-3-[3-fluoro-4-[[(2-methoxybenzoyl)amino]methyl]phenyl]pyrazole-4-carboxamide], the IC50 on Recombinant EGFR is 100 to 1000 nM; in assay [1] (setting [4]) it was 10 to 100 nM; in assay [2], below 10 nM; in assay [3], below 10 nM.
Take `COc1ccccc1C(=O)NCc1ccc(-c2nn(C3COC(C)(C)C3)c(N)c2C(N)=O)cc1` (centres unmarked) [Example 147, 5-amino-1-(5,5-dimethyltetrahydrofuran-3-yl)-3-[4-[[(2-methoxybenzoyl)amino]methyl]phenyl]pyrazole-4-carboxamide]: the IC50 at Recombinant EGFR was 1000 to 10000 nM; in assay [1] (setting [4]) it was 10 to 100 nM; in assay [2], below 10 nM; in assay [3], below 10 nM.
Take `COc1ccccc1C(=O)NCc1ccc(-c2nn(C3CCOCC3(C)C)c(N)c2C(N)=O)cc1` (centres unmarked) [Example 89, 5-amino-1-(3,3-dimethyltetrahydropyran-4-yl)-3-[4-[[(2-methoxybenzoyl)amino]methyl]phenyl]pyrazole-4-carboxamide]: the IC50 at Recombinant EGFR lay in the range of 1000 to 10000 nM; in assay [1] (setting [4]) it was 1000 to 10000 nM; in assay [2], 10 to 100 nM; in assay [3], 10 to 100 nM.
Turning to `COc1ccc(F)cc1C(=O)NCc1ccc(-c2nn(C3CN(C)CC3(F)F)c(N)c2C(N)=O)cc1` (centres unmarked) [Example 199, 5-amino-1-(4,4-difluoro-1-methyl-pyrrolidin-3-yl)-3-[4-[[(5-fluoro-2-methoxy-benzoyl)amino]methyl]phenyl]pyrazole-4-carboxamide], the IC50 at Recombinant EGFR is 1000 to 10000 nM; in assay [1] (setting [4]), 10 to 100 nM; in assay [2], below 10 nM; in assay [3], below 10 nM.
For `COc1ccccc1C(=O)NCc1ccc(-c2nn([C@H]3CC[C@H](Cl)C3)c(N)c2C(N)=O)cc1` (relative stereo) [Example 37, 5-amino-1-[(1S*,3S*)-3-chlorocyclopentyl]-3-[4-[[(2-methoxybenzoyl)amino]methyl]phenyl]pyrazole-4-carboxamide], the IC50 on Recombinant EGFR was 100 to 1000 nM; in assay [1] (setting [4]), 10 to 100 nM; in assay [2], below 10 nM; in assay [3] it was below 10 nM.
As to `COc1ccccc1C(=O)NCc1ccc(-c2nn(CC(F)(F)F)c(N)c2C(N)=O)c(F)c1` [Example 124, 5-amino-3-[2-fluoro-4-[[(2-methoxybenzoyl)amino]methyl]phenyl]-1-(2,2,2-trifluoroethyl)pyrazole-4-carboxamide], the IC50 on Recombinant EGFR lay within 1000 to 10000 nM; in assay [1] (setting [4]), 100 to 1000 nM; in assay [2], 10 to 100 nM; in assay [3] it was 10 to 100 nM.
In the case of `COc1ccccc1C(=O)NCc1ccc(-c2nn(C3CCC(C)(O)CC3)c(N)c2C(N)=O)cc1` (single isomer, unassigned) [Example 33, 5-Amino-1-(4-hydroxy-4-methyl-cyclohexyl)-3-[4-[[(2-methoxybenzoyl)amino]methyl]phenyl]pyrazole-4-carboxamide], the IC50 on Recombinant EGFR is 100 to 1000 nM; in assay [1] (setting [4]) it was 10 to 100 nM; in assay [2], below 10 nM; in assay [3], below 10 nM.
As to `COc1ccc(F)cc1C(=O)NCc1ccc(-c2nn(CCC(F)(F)F)c(N)c2C(N)=O)cc1` [Example 174, 5-amino-3-[4-[[(5-fluoro-2-methoxy-benzoyl)amino]methyl]phenyl]-1-(3,3,3-trifluoropropyl)pyrazole-4-carboxamide], the IC50 at Recombinant EGFR was 1000 to 10000 nM; in assay [1] (setting [4]) it was 10 to 100 nM; in assay [2] it was below 10 nM; in assay [3], below 10 nM.
As to `COc1ccccc1C(=O)NCc1ccc(-c2nn(C3CCOCC3)c(N)c2C(N)=O)cc1` [Example 64, 5-amino-3-[4-[[(2-methoxybenzoyl)amino]methyl]phenyl]-1-tetrahydropyran-4-yl-pyrazole-4-carboxamide], the IC50 at Recombinant EGFR is 100 to 1000 nM; in assay [1] (setting [4]), 10 to 100 nM; in assay [2], below 10 nM; in assay [3], below 10 nM.
`COc1ccccc1C(=O)NCc1ccc(-c2nn(C3CCCC3)c(N)c2C(N)=O)cc1` [Example 1, 5-amino-1-cyclopentyl-3-[4-[[(2-methoxybenzoyl)amino]methyl]phenyl]pyrazole-4-carboxamide]: the IC50 at Recombinant EGFR was 100 to 1000 nM; in assay [1] (setting [4]) it was below 10 nM; in assay [2] it was below 10 nM; in assay [3], below 10 nM.
Turning to `CCC(n1nc(-c2ccc(CNC(=O)c3cc(F)ccc3OC)cc2)c(C(N)=O)c1N)C(F)(F)F` (centres unmarked) [Example 181, 5-amino-3-[4-[[(5-fluoro-2-methoxy-benzoyl)amino]methyl]phenyl]-1-[1-(trifluoromethyl)propyl]pyrazole-4-carboxamide], the IC50 on Recombinant EGFR is 1000 to 10000 nM; in assay [1] (setting [4]), 10 to 100 nM; in assay [2], below 10 nM; in assay [3] it was below 10 nM.
For `COCC(C)n1nc(-c2ccc(CNC(=O)c3ccccc3OC)cc2)c(C(N)=O)c1N` (centres unmarked) [Example 143, 5-amino-3-[4-[[(2-methoxybenzoyl)amino]methyl]phenyl]-1-(2-methoxy-1-methyl-ethyl)pyrazole-4-carboxamide], the IC50 was above 10000 nM at Recombinant EGFR, 100 to 1000 nM in assay [1] (setting [4]), 10 to 100 nM in assay [2] and below 10 nM in assay [3].
